Data from ChEMBL document CHEMBL2062516, “Design, synthesis and antibacterial activities of a series of new 2-oxaisocephems” (2012).
Converted amounts (≈) assume the structure as drawn.

What was measured:
Assay type in all cases: functional
[1] = test system: Staphylococcus aureus; assay: Antibacterial activity against Staphylococcus aureus ATCC 25923
[2] = test system: Staphylococcus epidermidis; assay: Antibacterial activity against Staphylococcus epidermidis
[3] = test system: Escherichia coli; assay: Antibacterial activity against Escherichia coli ATCC 25922
[4] = test system: Pseudomonas aeruginosa; assay: Antibacterial activity against Pseudomonas aeruginosa ATCC 27853
[5] = test system: Klebsiella pneumoniae; assay: Antibacterial activity against Klebsiella pneumoniae
[6] = test system: Staphylococcus aureus; assay: Ratio MIC for ceftazidime to compound MIC for Staphylococcus aureus ATCC 25923
[7] = test system: Pseudomonas aeruginosa; assay: Ratio MIC for ceftazidime to compound MIC for Pseudomonas aeruginosa ATCC 27853

Compound | MIC [1] [mg/L] | MIC [2] [mg/L] | MIC [3] [mg/L] | MIC [4] [mg/L] | MIC [5] [mg/L] | Ratio [6] | Ratio [7]
CO/N=C(\C(=O)N[C@@H]1C(=O)N2C(C(=O)O)=C(CSc3nncs3)OC[C@H]12)c1nsc(N)n1 | 64 (≈ 128 µM) | 16 (≈ 32.1 µM) | 64 (≈ 128 µM) | 32 (≈ 64.2 µM) | 8 (≈ 16 µM) | – | –
CCO/N=C(\C(=O)N[C@@H]1C(=O)N2C(C(=O)O)=C(CSc3nncs3)OC[C@H]12)c1nsc(N)n1 | 64 (≈ 125 µM) | 128 (≈ 250 µM) | 128 (≈ 250 µM) | 128 (≈ 250 µM) | 128 (≈ 250 µM) | – | –
CC(C)O/N=C(\C(=O)N[C@@H]1C(=O)N2C(C(=O)O)=C(CSc3nncs3)OC[C@H]12)c1nsc(N)n1 | 32 (≈ 60.8 µM) | 1 (≈ 1.9 µM) | 128 (≈ 243 µM) | 4 (≈ 7.6 µM) | 1 (≈ 1.9 µM) | – | –
CCCCCO/N=C(\C(=O)N[C@@H]1C(=O)N2C(C(=O)O)=C(CSc3nncs3)OC[C@H]12)c1nsc(N)n1 | 64 (≈ 115 µM) | 64 (≈ 115 µM) | 128 (≈ 231 µM) | 16 (≈ 28.8 µM) | 32 (≈ 57.7 µM) | – | –
CC(C)CCO/N=C(\C(=O)N[C@@H]1C(=O)N2C(C(=O)O)=C(CSc3nncs3)OC[C@H]12)c1nsc(N)n1 | 128 (≈ 231 µM) | 128 (≈ 231 µM) | 128 (≈ 231 µM) | 128 (≈ 231 µM) | 128 (≈ 231 µM) | – | –
Nc1nc(/C(=N/OC2CCCC2)C(=O)N[C@@H]2C(=O)N3C(C(=O)O)=C(CSc4nncs4)OC[C@H]23)ns1 | 128 (≈ 232 µM) | 8 (≈ 14.5 µM) | 128 (≈ 232 µM) | 16 (≈ 29 µM) | 4 (≈ 7.24 µM) | – | –
Nc1nc(/C(=N/OC2CCCCC2)C(=O)N[C@@H]2C(=O)N3C(C(=O)O)=C(CSc4nncs4)OC[C@H]23)ns1 | 128 (≈ 226 µM) | 16 (≈ 28.2 µM) | 128 (≈ 226 µM) | 16 (≈ 28.2 µM) | 16 (≈ 28.2 µM) | – | –
CO/N=C(\C(=O)N[C@@H]1C(=O)N2C(C(=O)O)=C(CSc3nnnn3CCO)OC[C@H]12)c1nsc(N)n1 | 0.5 (≈ 0.95 µM) | 16 (≈ 30.4 µM) | 2 (≈ 3.8 µM) | 16 (≈ 30.4 µM) | 32 (≈ 60.8 µM) | 4 | –
CCO/N=C(\C(=O)N[C@@H]1C(=O)N2C(C(=O)O)=C(CSc3nnnn3CCO)OC[C@H]12)c1nsc(N)n1 | 0.5 (≈ 0.925 µM) | 0.125 (≈ 0.231 µM) | 2 (≈ 3.7 µM) | 64 (≈ 118 µM) | 64 (≈ 118 µM) | – | –
CC(C)O/N=C(\C(=O)N[C@@H]1C(=O)N2C(C(=O)O)=C(CSc3nnnn3CCO)OC[C@H]12)c1nsc(N)n1 | 0.5 (≈ 0.902 µM) | 0.125 (≈ 0.225 µM) | 0.5 (≈ 0.902 µM) | 8 (≈ 14.4 µM) | 32 (≈ 57.7 µM) | – | –
CCCCCO/N=C(\C(=O)N[C@@H]1C(=O)N2C(C(=O)O)=C(CSc3nnnn3CCO)OC[C@H]12)c1nsc(N)n1 | 16 (≈ 27.5 µM) | 0.125 (≈ 0.215 µM) | 8 (≈ 13.7 µM) | 4 (≈ 6.87 µM) | 32 (≈ 54.9 µM) | – | 2
CC(C)CCO/N=C(\C(=O)N[C@@H]1C(=O)N2C(C(=O)O)=C(CSc3nnnn3CCO)OC[C@H]12)c1nsc(N)n1 | 4 (≈ 6.87 µM) | 0.125 (≈ 0.215 µM) | 16 (≈ 27.5 µM) | 8 (≈ 13.7 µM) | 64 (≈ 110 µM) | – | 2
Nc1nc(/C(=N/OC2CCCC2)C(=O)N[C@@H]2C(=O)N3C(C(=O)O)=C(CSc4nnnn4CCO)OC[C@H]23)ns1 | 1 (≈ 1.72 µM) | 0.125 (≈ 0.215 µM) | 4 (≈ 6.89 µM) | 2 (≈ 3.44 µM) | 8 (≈ 13.8 µM) | – | 2
Nc1nc(/C(=N/OC2CCCCC2)C(=O)N[C@@H]2C(=O)N3C(C(=O)O)=C(CSc4nnnn4CCO)OC[C@H]23)ns1 | 2 (≈ 3.36 µM) | 64 (≈ 108 µM) | 32 (≈ 53.8 µM) | 64 (≈ 108 µM) | 128 (≈ 215 µM) | – | –
CC(C)(O/N=C(\C(=O)N[C@@H]1C(=O)N2C(C(=O)[O-])=C(C[n+]3ccccc3)CS[C@H]12)c1csc(N)n1)C(=O)O [CEFTAZIDIME] | 2 (≈ 3.66 µM) | 16 (≈ 29.3 µM) | 4 (≈ 7.32 µM) | 16 (≈ 29.3 µM) | 32 (≈ 58.5 µM) | – | –
